Source: patent US20250092030A1, “ENHANCERS OF PARTICULATE GUANYLYL CYCLASE RECEPTOR A” (Mayo Foundation for Medical Education and Research, priority 2023, published 2025)
“And” between values parts separate entries of the source, which are not always exact repeats. Equal entries are not always repeated. Where two headings read alike, the source gives them in different places. One block for each compound: values may come before it.

Target: T1, particulate guanylyl cyclase receptor A (pGC-A) (Homo sapiens, UniProt P16066)
T1 construct: expressed in transfected cells; host or cells: HEK293
T1 sequence (P16066 33-1061): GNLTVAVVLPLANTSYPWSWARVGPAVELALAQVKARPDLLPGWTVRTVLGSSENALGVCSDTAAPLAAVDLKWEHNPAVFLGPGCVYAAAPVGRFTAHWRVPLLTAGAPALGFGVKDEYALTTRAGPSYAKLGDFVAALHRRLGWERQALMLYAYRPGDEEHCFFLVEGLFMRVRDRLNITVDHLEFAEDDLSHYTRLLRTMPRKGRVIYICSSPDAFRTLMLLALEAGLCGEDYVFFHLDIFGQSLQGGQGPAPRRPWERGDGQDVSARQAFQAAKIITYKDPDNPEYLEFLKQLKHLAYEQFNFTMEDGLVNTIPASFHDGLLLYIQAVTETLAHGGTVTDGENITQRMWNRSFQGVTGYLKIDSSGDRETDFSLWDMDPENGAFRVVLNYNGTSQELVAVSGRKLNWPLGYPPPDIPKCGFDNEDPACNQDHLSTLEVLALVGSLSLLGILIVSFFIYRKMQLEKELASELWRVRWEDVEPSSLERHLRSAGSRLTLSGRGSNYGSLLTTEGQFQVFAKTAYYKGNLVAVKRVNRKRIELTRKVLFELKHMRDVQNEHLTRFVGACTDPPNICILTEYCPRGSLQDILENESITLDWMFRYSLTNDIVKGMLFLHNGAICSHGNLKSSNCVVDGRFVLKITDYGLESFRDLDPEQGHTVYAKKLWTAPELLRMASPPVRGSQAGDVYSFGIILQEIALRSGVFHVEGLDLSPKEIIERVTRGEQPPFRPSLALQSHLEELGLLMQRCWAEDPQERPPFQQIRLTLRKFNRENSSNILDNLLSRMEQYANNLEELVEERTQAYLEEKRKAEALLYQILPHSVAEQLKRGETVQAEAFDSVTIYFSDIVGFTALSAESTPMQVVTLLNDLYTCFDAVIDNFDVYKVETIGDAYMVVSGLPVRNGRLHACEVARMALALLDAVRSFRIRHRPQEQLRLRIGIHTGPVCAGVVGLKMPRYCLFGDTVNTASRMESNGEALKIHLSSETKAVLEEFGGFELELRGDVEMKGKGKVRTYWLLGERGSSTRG
T1 sequence (P01160 124-151 partner limits assumed): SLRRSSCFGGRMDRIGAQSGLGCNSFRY
Assay: cGMP production by HTRF in HEK293 cells overexpressing pGC-A, with ANP
Format: cell-based
Conditions: for Emax / Max efficacy: cGMP normalized to maximal amount produced by an EC80 concentration of ANP; for Emax: read-out: Max efficacy; for EC50: test compound plus EC20 concentration of ANP, cGMP by HTRF
Excerpt: Assay: Generally, the assay monitors the production of cGMP, the second messenger generated by pGC-A, by Time-Resolved Florescence (HTRF) in HEK293 cells overexpressing the pGC-A. pGC-A suspension cells were stimulated in the presence of the test compound and an EC20 concentration of ANP. The quantity of cGMP was detected by competitive immunoassay using Eu^3+ cryptate-labeled anti-cGMP and d2-labeled cGMP and normalized to maximal amount produced by an EC80 concentration of ANP. Compound EC50 values were determined in the primary assay, in the presence or absence of ANP, to determine mode of action as positive modulators and tested for selectivity in the same assay platform but in HEK cells overexpressing the particulate guanylyl cyclase B receptor (pGC-B), of which CNP is the endogenous ligand.
Assay details: 20 nL of 10 μM test compound in DMSO was added to columns 5-48 of 1536 well white high base screening plates (Corning, New York, NY) cells using 550 ECHO acoustic dispenser (Labcyte, San Jose, CA). Alpha-atrial natriuretic peptide (ANP) (Phoenix Pharmaceutics) was prepared as stock aliquots at 5 μM in PBS with 0.1% BSA. An approximate […] concentration of ANP ([…]) in assay buffer (HBSS containing 5 mM HEPES and 0.05% BSA) was added to columns 3-48 at a volume of 1 μL. Assay buffer only was added to column 1 and assay buffer containing a saturating concentration of ANP (5 nM) was added to column 2. HEK293 cells overexpressing GC-A were resuspended in assay media (OptimMem media containing 2% Heat-inactivated Fetal bovine serum and L-glutamine) at a density of 6×10^5 cells/mL and 2 μL were plated in screening plates (1200 cells/well) in suspension using a Bioraptr 2. Plates were spun at 1000 rpm for 1 min and incubated for 30 min at room temperature. 1.5 μL d2-labeled cGMP followed by 1.5 μL Eu^3+ cryptate-labeled anti-cGMP cGMP detection kit (CiBio; #62GM2PEC) prepared according to manufacturer's protocol were added to all wells using a Bioraptr 2 and TR-FRET signal was detected on an EnVision detector (PerkinElmer). Wells treated with 0.3% DMSO only serve as blank controls (column 1); wells treated with 0.3% DMSO and 5 nM ANP (columns 2) serve as positive controls and wells treated with 0.3% DMSO and […] ANP (columns 3-4) serve as negative controls.

[1] = HEK293, HEK293 cells overexpressing pGC-A
[2] = HEK293 cells overexpressing pGC-A

Compound: N[C@H]1CCCC(C(=O)Nc2nc3c(F)cc(F)cc3s2)C1 (stereo partly drawn) [210C]
- Emax [1]: 92%

Compound: N[C@H]1CCC[C@H](C(=O)Nc2nc3c(F)cc(F)cc3s2)C1 [210C]
- EC50 [2]: 1.9 µM

Compound: N[C@@H]1CCC[C@@H](C(=O)Nc2nc3c(F)cc(F)cc3s2)C1 [210T]
- Emax [1]: 86%
- EC50 [2]: 0.5 µM

Compound: CN(C)CCN1CCCC(C(=O)Nc2nc3c(F)cc(F)cc3[nH]2)C1 (stereo not drawn) [249a]
- EC50 [2]: > 5 µM

Compound: O=C(Nc1nc2c(F)cc(F)cc2[nH]1)C1CCCNC1 (stereo not drawn) [249b]
- Emax [1]: 72%

Compound: CN(C)CCN1CCCC(C(=O)Nc2nc3c(C(F)(F)F)cccc3s2)C1 (stereo not drawn) [compound 002]
- EC50 [2]: > 10 µM

Compound: CN(C)CCN1CCCC(C(=O)Nc2nc3c(-c4ccccc4)cccc3s2)C1 (stereo not drawn) [compound 003]
- EC50 [2]: > 10 µM

Compound: CN(C)CCN1CCCC(C(=O)Nc2nc3c(Cc4ccccc4)cccc3s2)C1 (stereo not drawn) [compound 004]
- EC50 [2]: > 10 µM

Compound: Cc1cccc2sc(NC(=O)C3CCCN(CCN(C)C)C3)nc12 (stereo not drawn) [compound 005]
- EC50 [2]: > 10 µM

Compound: COc1cccc2sc(NC(=O)C3CCCN(CCN(C)C)C3)nc12 (stereo not drawn) [compound 006]
- EC50 [2]: > 10 µM

Compound: CN(C)CCN1CCCC(C(=O)Nc2nc3c(C#N)cccc3s2)C1 (stereo not drawn) [compound 007]
- Emax [1]: 41%
- EC50 [2]: 0.6 µM

Compound: CN(C)CCN1CCCC(C(=O)Nc2nc3cc(F)ccc3s2)C1 (stereo not drawn) [compound 010]
- EC50 [2]: > 10 µM

Compound: CN(C)CCN1CCCC(C(=O)Nc2nc3cc(Cl)ccc3s2)C1 (stereo not drawn) [compound 011]
- EC50 [2]: > 10 µM

Compound: COc1ccc2sc(NC(=O)C3CCCN(CCN(C)C)C3)nc2c1 (stereo not drawn) [compound 013]
- EC50 [2]: > 10 µM

Compound: CN(C)CCN1CCCC(C(=O)Nc2nc3ccc(F)cc3s2)C1 (stereo not drawn) [compound 015]
- EC50 [2]: > 10 µM

Compound: CN(C)CCN1CCCC(C(=O)Nc2nc3ccc(Cl)cc3s2)C1 (stereo not drawn) [compound 016]
- Emax [1]: 94%
- EC50 [2]: 9.5 µM

Compound: Cc1ccc2nc(NC(=O)C3CCCN(CCN(C)C)C3)sc2c1 (stereo not drawn) [compound 017]
- EC50 [2]: > 10 µM

Compound: COc1ccc2nc(NC(=O)C3CCCN(CCN(C)C)C3)sc2c1 (stereo not drawn) [compound 018]
- EC50 [2]: > 10 µM

Compound: CN(C)CCN1CCCC(C(=O)Nc2nc3c(F)cc(C(F)(F)F)cc3s2)C1 (stereo not drawn) [compound 019]
- EC50 [2]: > 5 µM

Compound: Cc1cc(F)c2nc(NC(=O)C3CCCN(CCN(C)C)C3)sc2c1 (stereo not drawn) [compound 020]
- Emax [1]: 101%
- EC50 [2]: 0.9 µM

Compound: COc1cc(F)c2nc(NC(=O)C3CCCN(CCN(C)C)C3)sc2c1 (stereo not drawn) [compound 021]
- Max efficacy [2]: 77%
- EC50 [2]: 6.7 µM and 1.7 µM

Compound: CN(C)CCN1CCCC(C(=O)Nc2nc3c(F)cc(-c4ccccc4)cc3s2)C1 (stereo not drawn) [compound 022]
- EC50 [2]: > 5 µM

Compound: COC(=O)c1cc(F)c2nc(NC(=O)C3CCCN(CCN(C)C)C3)sc2c1 (stereo not drawn) [compound 023]
- EC50 [2]: > 5 µM

Compound: O=C(Nc1nc2c(F)cc(F)cc2s1)C1CCC2CCC1N2 (stereo not drawn) [compound 049]
- Emax [2]: 98%
- EC50 [2]: 0.3 µM

Further lines, results first:

- EC50 [2]: > 5 µM
Compound: CCOc1cc(F)c2nc(NC(=O)C3CCCN(CCN(C)C)C3)sc2c1 (stereo not drawn) [compound 026]

- EC50 [2]: > 5 µM
Compound: COCc1cc(F)c2nc(NC(=O)C3CCCN(CCN(C)C)C3)sc2c1 (stereo not drawn) [compound 029]

- EC50 [2]: > 5 µM
Compound: COCc1cc(F)c2nc(NC(=O)C3CCCNC3)sc2c1 (stereo not drawn) [compound 030]

- Emax [1]: 85%
- EC50 [2]: 4.3 µM
Compound: CN(C)CCN1CCCC(C(=O)Nc2nc3cccc(F)c3s2)C1 (stereo not drawn) [compound 032]

- Emax [1]: 82%
- Max efficacy [2]: 63%
- EC50 [2]: 2.2 µM and 1.2 µM
Compound: CN(C)CCN1CCCC(C(=O)Nc2nc3cccc(Cl)c3s2)C1 (stereo not drawn) [compound 033]

- Emax [1]: 99%
- EC50 [2]: 5.9 µM
Compound: Cc1cccc2nc(NC(=O)C3CCCN(CCN(C)C)C3)sc12 (stereo not drawn) [compound 034]

- Emax [1]: 96%
Compound: CN(C)CCN1CCCCC1C(=O)Nc1nc2c(F)cc(F)cc2s1 (stereo not drawn) [compound 037]

- EC50 [2]: > 5 µM
Compound: CN1CCC(N2CCCCC2C(=O)Nc2nc3c(F)cc(F)cc3s2)C1 (stereo not drawn) [compound 038]

- Emax [1]: 101%
- EC50 [2]: 1.53 µM
Compound: CN(C)CCCN1CCCCC1C(=O)Nc1nc2c(F)cc(F)cc2s1 (stereo not drawn) [compound 041]

- EC50 [2]: > 5 µM
Compound: O=C(Nc1nc2c(F)cc(F)cc2s1)C1CNCCN1C(=O)OCc1ccccc1 (stereo not drawn) [compound 043]

- EC50 [2]: > 5 µM
Compound: CN(C)CCN1CCOC(C(=O)Nc2nc3c(F)cc(F)cc3s2)C1 (stereo not drawn) [compound 046]

- EC50 [2]: > 5 µM
Compound: O=C(Nc1nc2c(F)cc(F)cc2s1)C1CNCCO1 (stereo not drawn) [compound 047]

- Emax [1]: 92%
- EC50 [2]: 0.8 µM
Compound: CN(C)CCN1CCCC1C(=O)Nc1nc2c(F)cc(F)cc2s1 (stereo not drawn) [compound 053]

- Emax [1]: 89%
- EC50 [2]: 0.6 µM
Compound: CN(C)CCN1CCCCC(C(=O)Nc2nc3c(F)cc(F)cc3s2)C1 (stereo not drawn) [compound 055]

- EC50 [2]: > 5 µM
Compound: CN(C)CCN1CC(C(=O)Nc2nc3c(F)cc(F)cc3s2)Cc2ccccc21 (stereo not drawn) [compound 057]

- Emax [1]: 95%
- EC50 [2]: 2.6 µM
Compound: O=C(Nc1nc2c(F)cc(F)cc2s1)C1CNc2ccccc2C1 (stereo not drawn) [compound 058]

- EC50 [2]: > 5 µM
Compound: CN(C)CCN1Cc2ccccc2C(C(=O)Nc2nc3c(F)cc(F)cc3s2)C1 (stereo not drawn) [compound 059]

- EC50 [2]: > 5 µM
Compound: O=C(Nc1nc2c(F)cc(F)cc2s1)C1CNCc2ccccc21 (stereo not drawn) [compound 060]

- Emax [1]: 94%
- EC50 [2]: 1.02 µM
Compound: CN(C)CCN1CC2(C(=O)Nc3nc4c(Cl)cc(F)cc4s3)CCC1CC2 [compound 061]

- Emax [1]: 92%
- EC50 [2]: 3.4 µM
Compound: O=C(Nc1nc2c(F)cc(F)cc2s1)C12CCC(CC1)NC2 [compound 062]

- Emax [1]: 77%
- EC50 [2]: 1.9 µM
Compound: CN(C)c1ccc(N2CCCC(C(=O)Nc3nc4c(F)cc(F)cc4s3)C2)cc1 (stereo not drawn) [compound 066]

- Emax [1]: 88%
- EC50 [2]: 0.7 µM
Compound: O=C(Nc1nc2c(F)cc(F)cc2s1)C1CCCN(CCn2cccn2)C1 (stereo not drawn) [compound 067]

- Emax [1]: 89%
- EC50 [2]: 0.9 µM
Compound: O=C(Nc1nc2c(F)cc(F)cc2s1)C1CCCN(CCn2ccnc2)C1 (stereo not drawn) [compound 068]
